# Experimental data published in patent publication US8198273B2, “Compounds and methods for kinase modulation, and indications therefor” (Plexxikon Inc., priority 2009, dated 2012).
# Experiments:
# [1] = target: B-Raf (Homo sapiens, UniProt P15056); assay: B-Raf biochemical kinase inhibition (AlphaScreen, biotin-MEK1 substrate); conditions: 100 μM ATP
# Summary of the method: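 Eight-point compound series (made from a 0.1 mM DMSO stock) tested against each Raf enzyme with biotin-MEK1 substrate and 100 μM final ATP.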
# [2] = test system: COLO205 colon adenocarcinoma cells (B-Raf V600E); assay: COLO205 cell growth inhibition (ATPlite); type: cell-based; conditions: Homo sapiens, COLO 205, 72 h; COLO205, 3 days incubation
# Summary of the method: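 ATPlite luminescence, taken as a cell-number measure, gave IC50 values after a 3-day 37° C, 5% CO2 incubation. Compounds were tested as 8-point threefold titrations, highest final concentration 10 μM, added to cells seeded the day before.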
# [3] = target: T1, CYP1A2 (Homo sapiens, UniProt P05177); assay: CYP1A2 inhibition (fluorescent substrate); type: in vitro ADME; conditions: CYP1A2, CEC substrate; read-out: Cyp IC50 1A2
# T1 sequence (P05177 1-516): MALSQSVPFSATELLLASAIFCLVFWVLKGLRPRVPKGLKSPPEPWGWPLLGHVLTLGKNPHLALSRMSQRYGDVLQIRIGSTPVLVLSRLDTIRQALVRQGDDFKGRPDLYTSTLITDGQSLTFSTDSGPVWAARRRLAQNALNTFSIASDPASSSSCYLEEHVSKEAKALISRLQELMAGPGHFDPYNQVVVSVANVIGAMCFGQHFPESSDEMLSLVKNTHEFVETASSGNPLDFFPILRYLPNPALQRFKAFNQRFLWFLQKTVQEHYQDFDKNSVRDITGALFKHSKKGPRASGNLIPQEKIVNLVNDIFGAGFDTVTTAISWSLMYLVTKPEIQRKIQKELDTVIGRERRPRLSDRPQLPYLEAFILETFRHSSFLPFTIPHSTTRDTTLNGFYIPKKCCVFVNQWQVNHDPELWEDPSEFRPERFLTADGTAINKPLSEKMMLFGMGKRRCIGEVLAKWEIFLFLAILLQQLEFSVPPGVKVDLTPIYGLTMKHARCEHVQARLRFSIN
# Summary of the method: (§1)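 10-pt 1:1 serial dilution in co-factor mix (DMSO stock 100 mM); 10 min preincubation, 37 °C; reaction at 37 °C. Readout: fluorescent metabolite of probe substrate. IC50 from signal vs [compound].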
# [4] = target: CYP2C19 (Homo sapiens, UniProt P33261); assay: CYP2C19 inhibition (fluorescent substrate); type: in vitro ADME; conditions: CYP2C19, CEC substrate; read-out: Cyp IC50 2C19
# Sequence of CYP2C19 (P33261 whole entry): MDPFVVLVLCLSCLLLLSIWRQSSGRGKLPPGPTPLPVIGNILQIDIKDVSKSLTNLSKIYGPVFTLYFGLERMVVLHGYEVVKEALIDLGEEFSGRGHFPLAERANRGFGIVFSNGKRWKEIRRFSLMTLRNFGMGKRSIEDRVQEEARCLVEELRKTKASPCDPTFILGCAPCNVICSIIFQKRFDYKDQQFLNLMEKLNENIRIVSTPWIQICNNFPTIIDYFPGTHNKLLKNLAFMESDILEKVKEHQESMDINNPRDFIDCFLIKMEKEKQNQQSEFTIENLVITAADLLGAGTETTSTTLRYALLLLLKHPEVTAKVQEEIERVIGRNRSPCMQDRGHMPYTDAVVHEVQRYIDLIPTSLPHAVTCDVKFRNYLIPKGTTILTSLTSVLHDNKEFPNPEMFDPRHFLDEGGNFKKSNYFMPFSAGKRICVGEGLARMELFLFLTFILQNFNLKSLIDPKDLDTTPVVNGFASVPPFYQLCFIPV
# Summary of the method: as §1
# Sequence of B-Raf (P15056 whole entry): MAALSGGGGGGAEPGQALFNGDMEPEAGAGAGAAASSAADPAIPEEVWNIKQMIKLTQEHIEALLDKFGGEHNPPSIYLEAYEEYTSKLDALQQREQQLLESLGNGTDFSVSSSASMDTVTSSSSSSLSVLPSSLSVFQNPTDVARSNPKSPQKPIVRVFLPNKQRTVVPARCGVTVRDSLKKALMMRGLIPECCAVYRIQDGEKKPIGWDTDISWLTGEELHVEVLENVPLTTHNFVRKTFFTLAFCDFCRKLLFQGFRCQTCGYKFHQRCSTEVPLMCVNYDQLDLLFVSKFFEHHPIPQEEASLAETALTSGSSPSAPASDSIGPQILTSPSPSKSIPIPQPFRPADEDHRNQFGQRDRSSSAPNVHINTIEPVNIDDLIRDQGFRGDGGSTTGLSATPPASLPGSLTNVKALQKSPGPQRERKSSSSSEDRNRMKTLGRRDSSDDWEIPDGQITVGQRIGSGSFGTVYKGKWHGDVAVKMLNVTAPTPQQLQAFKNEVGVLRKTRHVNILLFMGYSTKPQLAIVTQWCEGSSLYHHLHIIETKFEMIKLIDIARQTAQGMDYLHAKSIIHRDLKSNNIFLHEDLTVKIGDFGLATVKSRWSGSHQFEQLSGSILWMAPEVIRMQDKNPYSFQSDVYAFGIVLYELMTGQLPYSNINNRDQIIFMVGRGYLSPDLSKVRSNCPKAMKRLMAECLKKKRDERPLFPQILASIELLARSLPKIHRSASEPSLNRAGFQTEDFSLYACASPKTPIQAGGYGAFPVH
SMILES,IC50 [1] [µM],IC50 [2] [µM],IC50 [3] [µM],IC50 [4] [µM]
"CCCS(=O)(=O)Nc1ccc(F)c(C(=O)c2c[nH]c3ncc(-c4ccc(C(=O)NCC)nc4)cc23)c1F [P-2151, 5-{3-[2,6-Difluoro-3-(propane-1-sulfonylamino)-benzoyl]-1H-pyrrolo[2,3-b]pyridin-5-yl}-pyridine-2-carboxylic acid ethylamide]",< 0.01,< 1,> 10,> 10
"CCCS(=O)(=O)Nc1ccc(F)c(C(=O)c2c[nH]c3ncc(-c4ccc(OCCN5CCCC5)nc4)cc23)c1F [P-2233, Propane-1-sulfonic acid (2,4-difluoro-3-{5-[6-(2-pyrrolidin-1-yl-ethoxy)-pyridin-3-yl]-1H-pyrrolo[2,3-b]pyridine-3-carbonyl}-phenyl)-amide]",< 0.01,< 0.1,> 10,5 to 10
"C#Cc1cnc2[nH]cc(C(=O)c3c(F)ccc(NS(=O)(=O)CCC)c3F)c2c1 [P-2260, Propane-1-sulfonic acid [3-(5-ethynyl-1H-pyrrolo[2,3-b]pyridine-3-carbonyl)-2,4-difluoro-phenyl]-amide]",< 0.01,< 1,> 10,5 to 10
"CCCS(=O)(=O)Nc1ccc(F)c(C(=O)c2c[nH]c3ncc(-c4cnc(N(C)C)nc4)cc23)c1F [P-2196, Propane-1-sulfonic acid {3-[5-(2-dimethylamino-pyrimidin-5-yl)-1H-pyrrolo[2,3-b]pyridine-3-carbonyl]-2,4-difluoro-phenyl}-amide]",< 0.01,< 1,> 10,> 10
"CCCS(=O)(=O)Nc1ccc(F)c(C(=O)c2c[nH]c3ncc(-c4ccc(OCCCN5CCCC5)nc4)cc23)c1F [P-2235, Propane-1-sulfonic acid (2,4-difluoro-3-{5-[6-(3-pyrrolidin-1-yl-propoxy)-pyridin-3-yl]-1H-pyrrolo[2,3-b]pyridine-3-carbonyl}-phenyl)-amide]",< 0.01,< 0.1,> 10,< 5
"CCCS(=O)(=O)Nc1ccc(F)c(C(=O)c2c[nH]c3ncc(-c4ccc(S(=O)(=O)N5CCOCC5)cc4)cc23)c1F [P-2166, Propane-1-sulfonic acid (2,4-difluoro-3-{5-[4-(morpholine-4-sulfonyl)-phenyl]-1H-pyrrolo[2,3-b]pyridine-3-carbonyl}-phenyl)-amide]",< 0.01,< 0.1,> 10,> 10
"CCCS(=O)(=O)Nc1ccc(F)c(C(=O)c2c[nH]c3ncc(-c4cnc(SC)nc4)cc23)c1F [P-2189, Propane-1-sulfonic acid {2,4-difluoro-3-[5-(2-methylsulfanyl-pyrimidin-5-yl)-1H-pyrrolo[2,3-b]pyridine-3-carbonyl]-phenyl}-amide]",< 0.01,< 1,> 10,5 to 10
"CCCS(=O)(=O)Nc1ccc(F)c(C(=O)c2c[nH]c3ncc(-c4cnn(CCN5CCOCC5)c4)cc23)c1F [P-2177, Propane-1-sulfonic acid (2,4-difluoro-3-{5-[1-(2-morpholin-4-yl-ethyl)-1H-pyrazol-4-yl]-1H-pyrrolo[2,3-b]pyridine-3-carbonyl}-phenyl)-amide]",< 0.01,< 0.1,> 10,5 to 10

# Now from value to compound:
IC50 [1] [µM],IC50 [2] [µM],IC50 [3] [µM],IC50 [4] [µM],SMILES
< 0.01,< 1,> 10,> 10,"COc1ncc(-c2cnc3[nH]cc(C(=O)c4c(F)ccc(NS(=O)(=O)c5cccc(F)c5)c4F)c3c2)cn1 [P-2045, N-{2,4-Difluoro-3-[5-(2-methoxy-pyrimidin-5-yl)-1H-pyrrolo[2,3-b]pyridine-3-carbonyl]-phenyl}-3-fluoro-benzenesulfonamide]"
< 0.01,< 1,> 10,> 10,"Cc1cnc2[nH]cc(C(=O)c3c(F)ccc(NS(=O)(=O)c4cccnc4)c3F)c2c1 [P-2069, Pyridine-3-sulfonic acid [2,4-difluoro-3-(5-methyl-1H-pyrrolo[2,3-b]pyridine-3-carbonyl)-phenyl]-amide]"
< 0.01,< 1,> 10,5 to 10,"O=C(c1c(F)ccc(NS(=O)(=O)c2cc(F)ccc2F)c1F)c1c[nH]c2ncc(Cl)cc12 [P-2002, N-[3-(5-Chloro-1H-pyrrolo[2,3-b]pyridine-3-carbonyl)-2,4-difluoro-phenyl]-2,5-difluoro-benzenesulfonamide]"
< 0.01,< 5,> 10,> 10,"N#Cc1ccnc2[nH]cc(C(=O)c3c(F)ccc(NS(=O)(=O)c4cccc(F)c4)c3F)c12 [P-2039, N-[3-(4-Cyano-1H-pyrrolo[2,3-b]pyridine-3-carbonyl)-2,4-difluoro-phenyl]-3-fluoro-benzenesulfonamide]"
< 0.01,< 1,> 10,> 10,"COc1ncc(-c2cnc3[nH]cc(C(=O)c4c(F)ccc(NS(=O)(=O)c5c(F)cccc5F)c4F)c3c2)cn1 [P-2043, N-{2,4-Difluoro-3-[5-(2-methoxy-pyrimidin-5-yl)-1H-pyrrolo[2,3-b]pyridine-3-carbonyl]-phenyl}-2,6-difluoro-benzenesulfonamide]"
< 0.1,< 1,> 10,> 10,"COc1cnc2[nH]cc(C(=O)c3c(F)ccc(NS(=O)(=O)c4cc(F)ccc4F)c3F)c2c1 [P-2010, N-[2,4-Difluoro-3-(5-methoxy-1H-pyrrolo[2,3-b]pyridine-3-carbonyl)-phenyl]-2,5-difluoro-benzenesulfonamide]"
< 0.1,< 5,> 10,> 10,"O=C(c1c(F)ccc(NS(=O)(=O)c2ccccc2F)c1F)c1c[nH]c2nccc(Cl)c12 [P-2017, N-[3-(4-Chloro-1H-pyrrolo[2,3-b]pyridine-3-carbonyl)-2,4-difluoro-phenyl]-2-fluoro-benzenesulfonamide]"
< 0.1,< 10,> 10,> 10,"COc1ccnc2[nH]cc(C(=O)c3c(F)ccc(NS(=O)(=O)c4cccnc4)c3F)c12 [P-2073, Pyridine-3-sulfonic acid [2,4-difluoro-3-(4-methoxy-1H-pyrrolo[2,3-b]pyridine-3-carbonyl)-phenyl]-amide]"
< 1,< 5,> 10,> 10,"COc1ccnc2[nH]cc(C(=O)c3c(F)ccc(NS(=O)(=O)c4c(F)cccc4F)c3F)c12 [P-2031, N-[2,4-Difluoro-3-(4-methoxy-1H-pyrrolo[2,3-b]pyridine-3-carbonyl)-phenyl]-2,6-difluoro-benzenesulfonamide]"
